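Test compounds were applied to cells in 96-well plates for 48 hours at 5 doses. GI50: concentration for 50% inhibition of growth. TGI denotes the concentration required for complete inhibition of growth.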
Experiments:
Experiment in all cases: NCI-60 cell line screen, 48 h
UACC-62 melanoma = system: UACC-62 melanoma
SW-620 colon = system: SW-620 colon
ACHN renal = system: ACHN renal
A549 NSCLC = system: A549 NSCLC
UO-31 renal = system: UO-31 renal
OVCAR-3 ovarian = system: OVCAR-3 ovarian
OVCAR-8 ovarian = system: OVCAR-8 ovarian
SF-539 CNS = system: SF-539 CNS
M14 melanoma = system: M14 melanoma
HCC-2998 colon = system: HCC-2998 colon

| SMILES | TGI (UACC-62 melanoma) | TGI (SW-620 colon) | TGI (ACHN renal) | TGI (A549 NSCLC) | TGI (UO-31 renal) | TGI (OVCAR-3 ovarian) | TGI (OVCAR-8 ovarian) | TGI (SF-539 CNS) | TGI (M14 melanoma) | TGI (HCC-2998 colon) | GI50 (UACC-62 melanoma) | GI50 (SW-620 colon) | GI50 (ACHN renal) | GI50 (A549 NSCLC) | GI50 (UO-31 renal) | GI50 (OVCAR-3 ovarian) | GI50 (OVCAR-8 ovarian) | GI50 (SF-539 CNS) | GI50 (HCC-2998 colon) | GI50 (M14 melanoma) |
| --- | --- | --- | --- | --- | --- | --- | --- | --- | --- | --- | --- | --- | --- | --- | --- | --- | --- | --- | --- | --- |
| Cc1cccc(C)c1NC(=O)C(=O)CC(=O)c1cccc([N+](=O)[O-])c1 | > 100 µM | > 100 µM | > 100 µM | > 100 µM | > 100 µM | > 100 µM | > 100 µM | > 100 µM | > 100 µM | – | – | – | – | – | – | – | – | – | – | – |
| CC(C)(C)OC(=O)N1N=NC2C1C1CC(OCc3ccccc3)(OCc3ccccc3)C2O1 (centres undefined) | > 100 µM | 47.6 µM | > 100 µM | > 100 µM | > 100 µM | > 100 µM | – | – | > 100 µM | > 100 µM | – | – | – | – | – | – | – | – | – | – |
| Cc1cc(C(C)(C)C)cc(Cc2cc(C(C)(C)C)cc(Cc3cc(C(C)(C)C)cc(C)c3O)c2O)c1O | 18.9 µM | 17.4 µM | – | 18.7 µM | 25.9 µM | 16.5 µM | 17.6 µM | 23.6 µM | 20.5 µM | – | – | – | – | – | – | – | – | – | – | – |
| CCOC(=O)Cn1c(=O)n(C)c(=O)c2c1ncn2Cc1ccccc1 | > 100 µM | > 100 µM | > 100 µM | > 100 µM | > 100 µM | > 100 µM | > 100 µM | > 100 µM | > 100 µM | – | – | – | – | – | – | – | – | – | – | – |
| Cc1cc(C)n(-c2nnc3n2N=C(c2ccc(-c4ccccc4)cc2)CS3)n1 | 6.98 µM | > 100 µM | > 100 µM | > 100 µM | > 100 µM | 5.55 µM | > 100 µM | 5.2 µM | – | > 100 µM | 2.49 µM | 3.41 µM | 3.98 µM | 3.83 µM | 3.38 µM | 2.31 µM | 3.51 µM | 2.15 µM | 5.14 µM | – |
| CO/N=C(/C)c1cccc(Nc2cc(-c3ccccc3)nc3ccc(OC)cc23)c1 | 17.7 µM | 29.6 µM | 31.5 µM | 53.9 µM | > 100 µM | – | – | 4.89 µM | 25.3 µM | 20.8 µM | 4.33 µM | 4.74 µM | 14.1 µM | 23.1 µM | 15.5 µM | – | – | 2.45 µM | 4.97 µM | 6.92 µM |
| COC(=O)c1cccc2cccc(C(=O)Nc3ccc(Cl)cc3)c12 | – | > 66.8 µM | > 100 µM | > 100 µM | > 100 µM | > 100 µM | > 100 µM | > 100 µM | > 100 µM | > 100 µM | – | – | – | – | – | – | – | – | – | – |
| OCCNCCOc1ccc(/C(=C(/Cl)c2ccccc2)c2ccccc2)cc1 | 26.7 µM | 17.3 µM | – | 12.8 µM | 22.2 µM | 24.8 µM | 28 µM | 26.6 µM | 3.59 µM | – | – | – | – | – | – | – | – | – | – | – |
| Clc1cc(Cl)cc(Nc2ccc3cc(OCCCN4CCOCC4)ccc3n2)c1 | – | – | – | > 100 µM | – | 6.4 µM | > 100 µM | – | – | 3.31 µM | – | – | – | 3.93 µM | – | 2.36 µM | 4.36 µM | – | 1.73 µM | – |
| c1ccc(CSc2nc3ccccc3nc2-c2cccs2)cc1 | – | – | > 100 µM | > 100 µM | > 100 µM | > 100 µM | > 100 µM | > 100 µM | > 100 µM | > 100 µM | – | – | – | – | – | – | – | – | – | – |
| O=C1CSC(c2ccc(-c3nc4ccccc4s3)cc2)=N1 | 45.2 µM | > 100 µM | > 100 µM | > 100 µM | > 100 µM | 55 µM | > 100 µM | – | > 100 µM | 78.5 µM | 18 µM | 50.5 µM | 55.6 µM | 43.9 µM | 74.8 µM | 16 µM | 11.1 µM | – | 25.9 µM | 38.6 µM |
| CCOC(=O)/C(=C/c1cccc(C#N)c1)N(CC)CC | > 100 µM | > 100 µM | > 100 µM | > 100 µM | > 100 µM | – | > 100 µM | > 100 µM | > 100 µM | > 100 µM | – | – | – | – | – | – | – | – | – | – |
| O=C1C(Cl)=C(Nc2ccccc2O)C(=O)N1Cc1ccccc1 | 46.4 µM | – | 55.8 µM | 46 µM | 29.3 µM | 31.9 µM | 34 µM | – | 32.3 µM | 35.3 µM | 19.1 µM | – | 20.6 µM | 20.3 µM | 15.9 µM | 18 µM | 18.3 µM | – | 20.9 µM | 18.4 µM |
| Nc1nc(N)nc(CCCc2nc(N)nc(N)n2)n1 | > 100 µM | > 100 µM | > 100 µM | > 100 µM | > 100 µM | > 100 µM | > 100 µM | > 100 µM | > 100 µM | – | – | – | – | – | – | – | – | – | – | – |
| O=S1(=O)OCCOS(=O)(=O)C1Cl | > 100 µM | > 100 µM | – | > 100 µM | > 100 µM | > 100 µM | > 100 µM | > 100 µM | > 100 µM | > 100 µM | – | – | – | – | – | – | – | – | – | – |
| CC1C(=O)OC2CC[N+]3([O-])CC=C(COC(=O)C(C)(O)C1(C)O)C23 (centres undefined) | > 100 µM | > 100 µM | > 100 µM | > 100 µM | – | > 100 µM | > 100 µM | > 100 µM | > 100 µM | > 100 µM | – | – | – | – | – | – | – | – | – | – |
| O=c1c2ccccc2nc(-c2ccccc2)n1NC(=S)Nc1ccccc1 | > 100 µM | > 100 µM | > 100 µM | > 100 µM | > 100 µM | – | > 100 µM | > 100 µM | > 100 µM | – | – | – | – | – | – | – | – | – | – | – |
| Cc1nn(C(=O)c2ccc(Cl)cc2)c2c1C(c1ccc(O)cc1)SC(N)=N2 (centres undefined) | > 10 µM | > 10 µM | > 10 µM | > 10 µM | – | > 10 µM | > 10 µM | > 10 µM | > 10 µM | > 10 µM | – | – | – | – | – | – | – | – | – | – |
| Nc1ccc2[nH]cc(CCC(=O)O)c2c1 | > 100 µM | > 100 µM | > 100 µM | > 100 µM | > 100 µM | > 100 µM | > 100 µM | > 100 µM | > 100 µM | – | – | – | – | – | – | – | – | – | – | – |
| COc1ccc2c(c1)C(C)Cc1c(ncnc1-n1cnc3cc(C)ccc31)N2C (centres undefined) | 18 µM | 16.1 µM | 15.3 µM | 12.6 µM | 13.1 µM | 14.1 µM | 0.938 µM | – | 13.6 µM | 13.3 µM | 0.0436 µM | 0.087 µM | 0.0688 µM | 0.254 µM | 0.106 µM | 0.151 µM | 0.244 µM | – | 0.329 µM | 0.067 µM |
| CN(C)CCSc1nccc(-c2cc3ccccc3s2)n1 | 40.4 µM | 36.7 µM | – | 36.6 µM | 47.6 µM | > 100 µM | 65 µM | 37.2 µM | 32.3 µM | 29.3 µM | – | – | – | – | – | – | – | – | – | – |

— PubChem BioAssay (NCI)
